Measured values reported in PubChem BioAssay (NCI).
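Five concentrations, 48 hours, 96-well plates. TGI marks complete inhibition of growth.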

Tests used:
Experiment in all cases: NCI anticancer screen, dose series, 48 h
786-0 renal = system: 786-0 renal
A498 renal = system: A498 renal
A549 NSCLC = system: A549 NSCLC
ACHN renal = system: ACHN renal
BT-549 breast = system: BT-549 breast
CAKI-1 renal = system: CAKI-1 renal
CCRF-CEM leukemia = system: CCRF-CEM leukemia
COLO 205 colon = system: COLO 205 colon
DU-145 prostate = system: DU-145 prostate
EKVX NSCLC = system: EKVX NSCLC
HCC-2998 colon = system: HCC-2998 colon
HCT-116 colon = system: HCT-116 colon
HCT-15 colon = system: HCT-15 colon
HOP-62 NSCLC = system: HOP-62 NSCLC
HOP-92 NSCLC = system: HOP-92 NSCLC
HS 578T breast = system: HS 578T breast
HT29 colon = system: HT29 colon
IGROV1 ovarian = system: IGROV1 ovarian
K-562 leukemia = system: K-562 leukemia
LOX IMVI melanoma = system: LOX IMVI melanoma
MCF7 breast = system: MCF7 breast
MDA-MB-231 breast = system: MDA-MB-231 breast
MDA-MB-435 = system: MDA-MB-435
MDA-N = system: MDA-N
MOLT-4 leukemia = system: MOLT-4 leukemia
NCI-H226 lung = system: NCI-H226 lung
NCI-H23 lung = system: NCI-H23 lung
NCI-H460 lung = system: NCI-H460 lung
NCI/ADR-RES ovarian = system: NCI/ADR-RES ovarian
OVCAR-3 ovarian = system: OVCAR-3 ovarian
OVCAR-4 ovarian = system: OVCAR-4 ovarian
OVCAR-5 ovarian = system: OVCAR-5 ovarian
OVCAR-8 ovarian = system: OVCAR-8 ovarian
PC-3 prostate = system: PC-3 prostate
RPMI-8226 leukemia = system: RPMI-8226 leukemia
RXF 393 renal = system: RXF 393 renal
SF-268 CNS = system: SF-268 CNS
SF-295 CNS = system: SF-295 CNS
SF-539 CNS = system: SF-539 CNS
SK-MEL-2 melanoma = system: SK-MEL-2 melanoma
SK-MEL-28 melanoma = system: SK-MEL-28 melanoma
SK-MEL-5 melanoma = system: SK-MEL-5 melanoma
SK-OV-3 ovarian = system: SK-OV-3 ovarian
SN12C renal = system: SN12C renal
SNB-19 CNS = system: SNB-19 CNS
SNB-75 CNS = system: SNB-75 CNS
SR leukemia = system: SR leukemia
SW-620 colon = system: SW-620 colon
TK-10 renal = system: TK-10 renal
U251 CNS = system: U251 CNS
UACC-257 melanoma = system: UACC-257 melanoma
UACC-62 melanoma = system: UACC-62 melanoma
UO-31 renal = system: UO-31 renal
HL-60(TB) leukemia = system: HL-60(TB) leukemia
KM12 colon = system: KM12 colon
M14 melanoma = system: M14 melanoma
MALME-3M melanoma = system: MALME-3M melanoma
NCI-H522 lung = system: NCI-H522 lung

CC(=O)NCCc1c(-c2[nH]c3ccccc3c2CCNC(C)=O)[nH]c2ccccc12
TGI (786-0 renal): > 100 µM | TGI (A498 renal): > 100 µM | TGI (A549 NSCLC): > 100 µM | TGI (ACHN renal): > 100 µM | TGI (BT-549 breast): > 100 µM | TGI (CAKI-1 renal): > 100 µM | TGI (CCRF-CEM leukemia): > 100 µM | TGI (COLO 205 colon): > 100 µM | TGI (DU-145 prostate): > 100 µM | TGI (EKVX NSCLC): > 100 µM | TGI (HCC-2998 colon): > 100 µM | TGI (HCT-116 colon): > 100 µM | TGI (HCT-15 colon): > 100 µM | TGI (HOP-62 NSCLC): > 100 µM | TGI (HOP-92 NSCLC): > 100 µM | TGI (HS 578T breast): > 100 µM | TGI (HT29 colon): > 100 µM | TGI (IGROV1 ovarian): > 100 µM | TGI (K-562 leukemia): > 100 µM | TGI (LOX IMVI melanoma): > 100 µM | TGI (MCF7 breast): > 100 µM | TGI (MDA-MB-231 breast): > 100 µM | TGI (MDA-MB-435): > 100 µM | TGI (MDA-N): > 100 µM | TGI (MOLT-4 leukemia): > 100 µM | TGI (NCI-H226 lung): > 100 µM | TGI (NCI-H23 lung): > 100 µM | TGI (NCI-H460 lung): > 100 µM | TGI (NCI/ADR-RES ovarian): > 100 µM | TGI (OVCAR-3 ovarian): > 100 µM | TGI (OVCAR-4 ovarian): > 100 µM | TGI (OVCAR-5 ovarian): > 100 µM | TGI (OVCAR-8 ovarian): > 100 µM | TGI (PC-3 prostate): > 100 µM | TGI (RPMI-8226 leukemia): > 100 µM | TGI (RXF 393 renal): > 100 µM | TGI (SF-268 CNS): > 100 µM | TGI (SF-295 CNS): > 100 µM | TGI (SF-539 CNS): > 100 µM | TGI (SK-MEL-2 melanoma): > 100 µM | TGI (SK-MEL-28 melanoma): > 100 µM | TGI (SK-MEL-5 melanoma): > 100 µM | TGI (SK-OV-3 ovarian): > 100 µM | TGI (SN12C renal): > 100 µM | TGI (SNB-19 CNS): > 100 µM | TGI (SNB-75 CNS): > 100 µM | TGI (SR leukemia): > 100 µM | TGI (SW-620 colon): > 100 µM | TGI (TK-10 renal): > 100 µM | TGI (U251 CNS): > 100 µM | TGI (UACC-257 melanoma): > 100 µM | TGI (UACC-62 melanoma): > 100 µM | TGI (UO-31 renal): > 100 µM

CC(=O)O[C@H]1CC2C(C3CCC(C(C)CCC(=O)O)[C@]31C)[C@H](OC(C)=O)C[C@@H]1CC3(CC[C@]21C)OOC1(CC[C@]2(C)C4C[C@H](OC(C)=O)[C@]5(C)C(C(C)CCC(=O)O)CCC5C4[C@H](OC(C)=O)C[C@@H]2C1)OO3 (some centres undefined)
TGI (786-0 renal): 9.32 µM | TGI (A549 NSCLC): 5.19 µM | TGI (ACHN renal): 3.44 µM | TGI (BT-549 breast): 4.11 µM | TGI (CAKI-1 renal): 5.15 µM | TGI (CCRF-CEM leukemia): 9.87 µM | TGI (COLO 205 colon): 4.24 µM | TGI (DU-145 prostate): 4.48 µM | TGI (EKVX NSCLC): 9.67 µM | TGI (HCC-2998 colon): 3.8 µM | TGI (HCT-116 colon): 3.85 µM | TGI (HCT-15 colon): 6.39 µM | TGI (HL-60(TB) leukemia): 3.65 µM | TGI (HOP-62 NSCLC): 3.97 µM | TGI (HS 578T breast): 4.1 µM | TGI (HT29 colon): > 100 µM | TGI (IGROV1 ovarian): 4.25 µM | TGI (K-562 leukemia): > 100 µM | TGI (KM12 colon): 3.17 µM | TGI (LOX IMVI melanoma): 3.11 µM | TGI (M14 melanoma): 8.31 µM | TGI (MALME-3M melanoma): 3.13 µM | TGI (MCF7 breast): 12.3 µM | TGI (MDA-MB-231 breast): 3.85 µM | TGI (MDA-MB-435): 4.31 µM | TGI (MDA-N): 5.91 µM | TGI (MOLT-4 leukemia): 13.1 µM | TGI (NCI-H226 lung): 4.21 µM | TGI (NCI-H23 lung): 4.08 µM | TGI (NCI-H522 lung): 3.03 µM | TGI (NCI/ADR-RES ovarian): 26.7 µM | TGI (OVCAR-3 ovarian): 3.53 µM | TGI (OVCAR-4 ovarian): 9.84 µM | TGI (OVCAR-5 ovarian): 3.5 µM | TGI (OVCAR-8 ovarian): 4.97 µM | TGI (PC-3 prostate): 3.85 µM | TGI (RPMI-8226 leukemia): 14.7 µM | TGI (SF-268 CNS): 4.01 µM | TGI (SF-295 CNS): 4.72 µM | TGI (SK-MEL-2 melanoma): 3.64 µM | TGI (SK-MEL-28 melanoma): > 100 µM | TGI (SK-MEL-5 melanoma): 3.11 µM | TGI (SK-OV-3 ovarian): 11.6 µM | TGI (SN12C renal): 6.02 µM | TGI (SNB-19 CNS): > 100 µM | TGI (SR leukemia): 9.55 µM | TGI (SW-620 colon): > 100 µM | TGI (TK-10 renal): 6.8 µM | TGI (U251 CNS): 2.59 µM | TGI (UACC-257 melanoma): 4.68 µM | TGI (UO-31 renal): 3.32 µM
